For data set [1], the system named is Pectobacterium carotovorum ssp. carotovorum. To be noted: LB-medium, 27°C.
The test system of data set [2] is P. syringae pv. tomato DC3000. To be noted: peptide concentrations up to 100 µg/ml, sprayed; cfu 30 min after treatment.
In another data set the test system is P. syringae. To be noted: Table S5; 10 µg/ ml peptide; organism P. syringae pv syrimgae [sic].
In data set [3] the test system is Pseudomonas syringae pv. syringae. To be noted: LB-medium, 27°C.
The next data set relates to Xanthomonas vesicatoria. To be noted: LB-medium, 27°C.
In data set [4] the test system is Clavibacter michiganensis ssp. michiganensis. To be noted: LB-medium, 27°C.
Data set [5] relates to Arabidopsis mesophyll protoplasts. Description: Phytotoxicity on plant protoplasts. Format: cell-based. The settings on record: 1 h incubation, light microscope; for Phytotoxicity: peptide concentration where protoplasts show first signs of cytoplasmic degradation: 0, 10, 100, 200 µg/ml. The protocol: Phytotoxicity was measured on Arabidopsis mesophyll protoplasts prepared from leaves as described in [80]. 80 µl protoplast suspension containing about 5000 protoplasts were incubated with 20 µl peptide solution. Final peptide concentrations were 0, 10, 100 and 200 µg/ml. The phytotoxic effect of antimicrobial peptides was observed after 1 h with a light microscope. Hints to cell death are loss of spherical shape, chloroplast release and/or agglomeration of protoplasts.

In a further data set the test system is Pseudomonas corrugata. To be noted: LB-medium, 27°C.
For another data set, the system named is human erythrocytes. As to the kind of experiment: Hemolytic activity (hemoglobin release). Format: cell-based. The settings on record: 45 min, 37°C. The protocol: The hemolytic activity of the peptides was evaluated by determining hemoglobin release of suspensions of fresh human erythrocytes at 405 nm. Human red blood cells (Deutscher Blutspendedienst, München, Germany) were centrifuged and washed three times with Tris-buffer (10 mM Tris, 150 mM NaCl, pH 7.4). 80 µl of cells (1.5×10^9 cells/ml) were added to 20 µl of the peptide solution in 96-well plates and incubated for 45 min at 37°C. Final peptide concentrations were 0, 20, 50, 100 and 200 µg/ml. After centrifugation (1,500 g, 5 min, 20°C) 30 µl aliquots of the supernatant were transferred to 96-well plates containing 100 µl of water and released hemoglobin was determined using a microplate reader (OD405 nm). 100% hemolysis was determined with 2% SDS.

For data set [6], the system named is Pseudomonas syringae pv. tomato. To be noted: LB-medium, 27°C.
A further data set deals with Cladosporium herbarum. The settings on record: 2% malt extract medium, 1.5–2×10^3 spores/ml, room temperature, 3d, visual screening; lowest concentration with no visible growth; at least two independent replicates.
The test system of the next data set is Alternaria alternata. To be noted: 2% malt extract medium, 1.5–2×10^3 spores/ml, room temperature, 3d, OD590 nm; lowest concentration with no visible growth; at least two independent replicates.
A further data set concerns tested plant pathogens. Description: Microdilution assay, activity summarised over several tested plant pathogens. Type of data set: cell-based. To be noted: statement over some / the majority of the tested plant pathogens or bacteria. How it is done: In-vitro inhibition assays were performed in sterile flat-bottom 96-well polypropylene-plates (Greiner bio-one, Frickenhausen, Germany). 10 µl (antibacterial assay) or 20 µl (antifungal assay) of each concentration were loaded per well. Fresh bacterial colonies were transferred into LB-medium, grown to an OD600 nm of 0.08–0.1 and diluted 1∶100 with medium. 90 µl of this suspension containing about 10^5 CFU/ml of bacteria were added to each well resulting in final peptide concentrations from 0 to 100 µg/ml. After incubation at 27°C for 1–2d bacterial growth was analyzed by measuring the OD590 nm using a Tecan Genios microplate reader (Crailsheim, Germany).
Spores of plant pathogenic fungi were collected by washing sporulating cultures with water. Spore concentration was determined by haematocytometer and adjusted to 1.5–2×10^3 spores/ml in 2% malt extract medium. 80 µl of fungal spores were added per well resulting in final peptide concentrations from 0 to 100 µg/ml. After incubation at room temperature for 3d on a rotary shaker (300 rpm), fungal growth was determined by measuring the OD590 nm (Alternaria sp.) or by visual screening of the plates (Botrytis sp., Cladosporium sp.). The lowest peptide concentration, where no visible microbial growth could be detected, was determined for each organism-peptide combination and referred to as the minimal inhibitory concentration (MIC). At least two independent replicates were performed.

The test system of a further data set is Botrytis cinerea. The settings on record: 2% malt extract medium, 1.5–2×10^3 spores/ml, room temperature, 3d, visual screening; lowest concentration with no visible growth; at least two independent replicates.
The mark [7] stands for this setting: about 10^5 CFU/ml, 1–2d, OD590 nm, at least two independent replicates.

Where “and” joins values, the source holds several entries; their conditions need not be identical. Identical values can stand only once. Like-named read-outs stand apart in the source and are kept apart here. Ends that are not written are not given here. Some results are limits rather than exact numbers.

Take RKKRLKLLKRLL-NH2 [SP1-1]: the MIC is above 10 µg/mL in [1] (Table 4, incubation period 1d); 0.1 µg/mL in data set [3] (Table 4, incubation period 1d); 0.1 µg/mL in the data set on Xanthomonas vesicatoria (Table 4, incubation period 2d); 2.5 µg/mL in data set [4] (Table 4, incubation period 2d); below 0.1 µg/mL against Pseudomonas corrugata (Table 4, incubation period 2d). In addition, the “growth inhibition on tomato leaves” value in [2] was found to be 90%. Also, the “Growth inhibition of bacteria/fungi on leaf surface” value in the data set with P. syringae turned out to be 40%. Further, the “phytotoxicity to plant protoplasts (in words)” value (shortened to “phytotoxicity … (in words)”) in data set [5] is listed as “very low phytotoxicity”. Moreover, the “Phytotoxicity: peptide concentration where protoplasts show first signs of cytoplasmic degradation” value in data set [5] was 200 µg/mL.

For the substance LRKLKKILKKLF-NH2 [SP10-10], the MIC worked out at 2.5 µg/mL in data set [1] (Table 4, incubation period 1d); 0.25 µg/mL in data set [3] (Table 4, incubation period 1d); 0.1 µg/mL against Xanthomonas vesicatoria (Table 4, incubation period 2d); 0.5 µg/mL in data set [6] (Table 4, incubation period 1d); 0.25 µg/mL in data set [4] (Table 4, incubation period 2d); 0.25 µg/mL against Pseudomonas corrugata (Table 4, incubation period 2d). The “Hemolytic activity: peptide concentration leading to 25% hemoglobin release from human blood cells” value in the data set on human erythrocytes (Table 4, highest concentration tested 200 µg/ml) was “– (no value indicates none detectable hemolytic activity up to the highest concentration tested)”.

For RKRAARLLKRLV-NH2 [SP2], the MIC is above 40 µg/mL in data set [1] (setting [7]); 2 µg/mL in [3] (setting [7]); 2 µg/mL against Xanthomonas vesicatoria (setting [7]); 20 µg/mL in the data set on Cladosporium herbarum; 2 µg/mL in [6] (setting [7]); above 100 µg/mL against Alternaria alternata. Also, the MIC in [4] (setting [7]) is 2 µg/mL; against Botrytis cinerea, above 100 µg/mL; in the data set with Pseudomonas corrugata (setting [7]) it was 5 µg/mL. Further, the “active concentrations (MIC)” value with tested plant pathogens is 1 to 5 µg/mL and 1 to 2 µg/mL.

Regarding LRALAKALKHKL-NH2 [SP11], the MIC in data set [1] (setting [7]) was above 40 µg/mL; in [3] (setting [7]) it was above 40 µg/mL; in the data set on Xanthomonas vesicatoria (setting [7]), above 40 µg/mL; in the data set on Cladosporium herbarum it was 20 µg/mL; in data set [6] (setting [7]), 5 µg/mL; against Alternaria alternata, above 100 µg/mL. The MIC in data set [4] (setting [7]) is above 40 µg/mL; in the data set with Botrytis cinerea, above 100 µg/mL; with Pseudomonas corrugata (setting [7]), 10 µg/mL.

On to LRIIKKILKKLI-NH2 [SP10-5], for which the MIC in data set [1] (Table 4, incubation period 1d) turned out to be 2.5 µg/mL; in [3] (Table 4, incubation period 1d) it was 0.5 µg/mL; in the data set on Xanthomonas vesicatoria (Table 4, incubation period 2d), 0.25 µg/mL; in data set [6] (Table 4, incubation period 1d), 0.25 µg/mL; in [4] (Table 4, incubation period 2d) it was 0.5 µg/mL; against Pseudomonas corrugata (Table 4, incubation period 2d) it was 0.5 µg/mL. Moreover, in [2], the “growth inhibition on tomato leaves” value stood at 90%. Also, the “Growth inhibition of bacteria/fungi on leaf surface” value in the data set on P. syringae was 70%. In addition, the “phytotoxicity … (in words)” value in data set [5] is “very low phytotoxicity”. Besides, the “Phytotoxicity: peptide concentration where protoplasts show first signs of cytoplasmic degradation” value in [5] amounted to 200 µg/mL.

Take RKKRLKLLKR LV-NH2 [SP1-D]: the MIC in data set [1] (setting [7]) was above 40 µg/mL; in data set [3] (setting [7]), 5 µg/mL; in the data set on Xanthomonas vesicatoria (setting [7]) it was 40 µg/mL; against Cladosporium herbarum, 20 µg/mL; in data set [6] (setting [7]), 5 µg/mL; against Alternaria alternata, 20 µg/mL. The values for the MIC (in data set [4] (setting [7]); in the data set on Botrytis cinerea; against Pseudomonas corrugata (setting [7])) were 40 µg/mL, above 40 µg/mL and 20 µg/mL, respectively.

Consider LLKALKKLLKKLL-NH2 [SP9], for which the MIC in data set [1] (setting [7]) is above 40 µg/mL; in data set [3] (setting [7]) it was 10 µg/mL; with Xanthomonas vesicatoria (setting [7]) it was 5 µg/mL; with Cladosporium herbarum, 40 µg/mL; in data set [6] (setting [7]), 10 µg/mL; with Alternaria alternata it was above 100 µg/mL. For the same substance, the MIC was 10 µg/mL in data set [4] (setting [7]), above 100 µg/mL with Botrytis cinerea and above 40 µg/mL in the data set on Pseudomonas corrugata (setting [7]).

For LKALRKALKHLA-NH2 [SP12], the MIC in [1] (setting [7]) is above 40 µg/mL; in [3] (setting [7]), 10 µg/mL; with Xanthomonas vesicatoria (setting [7]), 20 µg/mL; with Cladosporium herbarum, 20 µg/mL; in data set [6] (setting [7]), 2.5 µg/mL; against Alternaria alternata it was above 100 µg/mL. In addition, the values for the MIC (in [4] (setting [7]); in the data set with Botrytis cinerea; with Pseudomonas corrugata (setting [7])) were above 40 µg/mL, above 100 µg/mL and above 40 µg/mL, respectively. In the data set on human erythrocytes (Tris-buffer pH 7.4, 0, 20, 50, 100, 200 µg/ml, OD405 nm, 100% = 2% SDS, >200 = slight hemolytic activity at 200 µg/ml below threshold), the “Hemolytic activity: peptide concentration leading to 25% hemoglobin release from human blood cells” value was above 200 µg/mL.

On to RKKRLKLLKRLV-NH2 [SP1], for which the MIC in the data set on Cladosporium herbarum was 10 µg/mL; in the data set on Alternaria alternata, above 100 µg/mL; in the data set with Botrytis cinerea, above 100 µg/mL. Besides, the “active concentrations (MIC)” value in the data set on tested plant pathogens is 1 to 5 µg/mL and 1 to 2 µg/mL.

Consider LLIKFLKRFIKH-NH2 [SP7-D], for which the MIC in data set [1] (setting [7]) stood at 40 µg/mL; against Xanthomonas vesicatoria (setting [7]) it was 10 µg/mL; against Cladosporium herbarum, 5 µg/mL; with Alternaria alternata, 5 µg/mL; in data set [4] (setting [7]), 5 µg/mL; against Botrytis cinerea it was 20 µg/mL. In addition, the MIC with Pseudomonas corrugata (setting [7]) stood at 5 µg/mL.

As for KRKLTLVFGVMAGVIGTKKR-NH2 [SP14], the MIC in data set [1] (setting [7]) was above 40 µg/mL; in data set [3] (setting [7]) it was above 40 µg/mL; with Xanthomonas vesicatoria (setting [7]), above 40 µg/mL; in the data set with Cladosporium herbarum it was 100 µg/mL; in data set [6] (setting [7]), 40 µg/mL; in the data set on Alternaria alternata it was above 100 µg/mL. In addition, the MIC is 20 µg/mL in [4] (setting [7]), above 100 µg/mL with Botrytis cinerea and above 40 µg/mL in the data set with Pseudomonas corrugata (setting [7]).

With KRKLIFLAAFLAALALFKKR-NH2 [SP15], the MIC in [1] (setting [7]) is above 40 µg/mL; in [3] (setting [7]), above 40 µg/mL; with Xanthomonas vesicatoria (setting [7]), 20 µg/mL; in the data set with Cladosporium herbarum it was 40 µg/mL; in data set [6] (setting [7]), 40 µg/mL; against Alternaria alternata, above 100 µg/mL. The values for the MIC (in [4] (setting [7]); against Botrytis cinerea; in the data set on Pseudomonas corrugata (setting [7])) were 2.5 µg/mL, above 100 µg/mL and above 40 µg/mL, respectively. The “phytotoxicity … (in words)” value in data set [5] is recorded as “highly ph ytotoxic”.

Consider KRRLAAFRAFRGALKSVLKK-NH2 [SP16], for which the minimum inhibitory concentration (MIC) is above 40 µg/mL in data set [1] (setting [7]); 5 µg/mL in [3] (setting [7]); 5 µg/mL in the data set on Xanthomonas vesicatoria (setting [7]); 20 µg/mL against Cladosporium herbarum; 5 µg/mL in data set [6] (setting [7]); above 100 µg/mL in the data set on Alternaria alternata. Further, the MIC is 5 µg/mL in [4] (setting [7]), above 100 µg/mL with Botrytis cinerea and 2.5 µg/mL with Pseudomonas corrugata (setting [7]).

Take RKRFARFAKRAV-NH2 [SP3]: the minimal inhibitory concentration (MIC) in data set [1] (setting [7]) is above 40 µg/mL; in [3] (setting [7]) it was above 40 µg/mL; in the data set on Xanthomonas vesicatoria (setting [7]) it was above 40 µg/mL; against Cladosporium herbarum, 40 µg/mL; in data set [6] (setting [7]) it was 5 µg/mL; with Alternaria alternata, above 100 µg/mL. Besides, the MIC in data set [4] (setting [7]) is 20 µg/mL; in the data set on Botrytis cinerea it was above 100 µg/mL; in the data set on Pseudomonas corrugata (setting [7]) it was above 40 µg/mL.

For KKKAARALKRAL-NH2 [SP4], the MIC in data set [1] (setting [7]) was above 40 µg/mL; in data set [3] (setting [7]), above 40 µg/mL; in the data set on Xanthomonas vesicatoria (setting [7]) it was above 40 µg/mL; with Cladosporium herbarum, 40 µg/mL; in data set [6] (setting [7]), 10 µg/mL; with Alternaria alternata it was above 100 µg/mL. Also, the MIC was 40 µg/mL in [4] (setting [7]), above 100 µg/mL against Botrytis cinerea and above 40 µg/mL in the data set on Pseudomonas corrugata (setting [7]).
